Assay results from patent publication US20240180841A1, “ENTERIC TABLET CONTAINING DIMETHYL FUMARATE” (CURACLE CO., LTD., priority 2019, published 2024).
Where a name gives a salt, the structure may show the parent alone.

Assay: Weight loss rate at 60° C. for 2 weeks (sublimation)
Assay type: physicochemical
Conditions: drying and sublimation
Experimental: Dimethyl fumarate has a property of being lost by sublimation depending on the storage temperature. Accordingly, in order to confirm the degree of weight loss according to the coating drying temperature, the degree of weight loss was repeatedly evaluated for 2 weeks at a temperature of 60° C. for dimethyl fumarate and a mixture thereof. At this time, the mixture of dimethyl fumarate was a mixture in which dimethyl fumarate and other pharmaceutically acceptable additives were mixed.

Weight loss in words: continued to lose weight
Structure (SMILES): COC(=O)/C=C/C(=O)OC [dimethyl fumarate, Dimethyl fumarate]
